Where “and” joins values, the source holds several entries; their conditions need not be identical. Equal entries are not always repeated.
Legend:
[1] = blood/plasma half life; type: in vivo
Experimental: Administration of the compound of formula 1, or its active metabolite 2, in an effective dosing regimen, must take into account the long blood/plasma half lives of these two compounds, approximately 40 and 80 hours, respectively, as well as their safety profiles. Thus, there is a need for safe and therapeutically effective dosing regimens for administering the compounds of formula 1 and 2 to a mammal, including a human, for treating abnormal cell growth, such as cancer.

[2] = Example 2: AML patients, toxicities; type: in vivo, human
Experimental: (§1) Constitutively activating mutations of the receptor FLT3 are present in approximately 30% of patients with AML and correlate with poor prognosis. […] Two dose levels (50 and 75 mg) and 2 schedules (Group A: 4 weeks of treatment followed by a 14 day rest period; and Group B: 4 weeks of treatment followed by a 7 day rest period) were evaluated in 3 cohorts of patients. Flt3 genotyping for ITD and D835 mutations was performed to enable retrospective stratification. Correlative laboratory studies to assess inhibition of target phosphorylation, and modulation of signaling pathways regulating apoptosis and proliferation were performed by Western blot and immunohistochemistry analyses and FL expression and IHC were conducted.

[3] = test system: solid tumors; test: Example 3: solid tumor patients, antitumor activity; type: in vivo, human
Source text: (§2) The patients were characterized as follows: 15 male, 13 female; age range 33-78 years; median age 55 years; median PS 0; WHO PS, 0 (22 patients), 1 (3 patients), 2 (3 patients). The number of pretreatment regimens ranged from 0 to 9, with a median of 2. The tumors types (number of patients) were: renal cell carcinoma (4); neuroendocrine tumors (4); colorectal cancer (3); non-small cell lung cancer (2); mesotheliomas (2); uterine carcinoma (2); breast cancer (2); pancreas (2); angiosarcoma (2); esophagus (1); undifferentiated carcinoma of nasopharynx (1); parotid adenocarcinoma (1); melanoma (1); gastrointestinal stromal tumor (1). […] All other trials were dosed with flat doses (i.e., mg). All dosage amounts are free-base equivalents. A plus symbol (+) following the number of cycles indicates the patient was still on study at the date the data were summarized.

[4] = Example 3: solid tumor patients, dose limiting toxicities; type: in vivo, human
Source text: as §2

[5] = Example 1: metastatic renal cell carcinoma patients, adverse events; type: in vivo, human
Source text: (§3) Eligibility included measurable disease, ECOG performance status of 0 or 1, failure of one prior cytokine-based therapy due to disease progression or toxicity, and adequate cardiac function as defined by normal ejection fraction on MUGA or ECHO. Patients were excluded if they had significant cardiac events within the past 12 months or received more than one prior cytokine regimen.

[6] = test system: metastatic renal cell carcinoma (RCC); test: Example 1: metastatic renal cell carcinoma patients, best response by RECIST; type: in vivo, human
Source text: as §3

[7] = test system: primary or secondary AML; test: Example 2: AML patients, clinical activity by WHO criteria; type: in vivo, human; parameters: key to Best Response: NE: not evaluated; PR: partial response; SD: stable disease; PD: Progressive Disease; details: for Best Response: AML, one line per patient
Experimental: as §1

[8] = test system: bone marrow engraftment model; test: bone marrow engraftment model; type: in vivo; details: pre-clinical experiments
[9] = test system: FLT3; test: Example 2: AML patients, FLT3 phosphorylation and expression (Western blot, immunohistochemistry); type: in vivo, human
Experimental: as §1

[10] = test system: FLT3-ITD xenograft tumor; test: FLT3-ITD xenograft tumor model; type: in vivo; details: pre-clinical experiments
[11] = 15 AML patients, 50 or 75 mg daily
[12] = 15 AML patients, 50 or 75 mg daily, 4 weeks treatment, 14 or 7 day rest, mainly grade 1-2
[13] = all dosing schedules, 23 evaluable
[14] = preliminary safety data N=44, 50 mg daily 4 weeks/2-week rest, mostly grades 1 and 2
[15] = preliminary safety data N=44, without signs of pancreatitis
[16] = 63 metastatic RCC patients, 50 mg daily orally 4 weeks, 2-week rest

## CCNCCNC(=O)c1c(C)[nH]c(/C=C2\C(=O)Nc3ccc(F)cc32)c1C [Compound 2, 5-(5-fluoro-2-oxo-1,2-dihydroindol-(3Z)-ylidenemethyl)-2,4-dimethyl-1H-pyrrole-3-carboxylic acid (2-ethylaminoethyl)-amide]
[1]
  half-life: ~80 h

## CCN(CC)CCNC(=O)c1c(C)[nH]c(/C=C2\C(=O)Nc3ccc(F)cc32)c1C [5-(5-fluoro-2-oxo-1,2-dihydroindol-(3Z)-ylidenemethyl)-2,4-dimethyl-1H-pyrrole-3-carboxylic acid (2-diethylaminoethyl)-amide]
[2]; [11]
  Grade 3 drug related fatigue, patients: 20%
[2]; [12]
  toxicity: diarrhea: 13%
  toxicity: fatigue: 27%
  toxicity: nausea: 33%
  toxicity: vomiting: 13%
[2]; at 75 mg
  dose limiting toxicity, fatigue grade 4 (number): One
[3]; 50 mg Q2D, 3 patients
  Tumor Progression: 3
  Tumor Response (#): 0
  Tumor Stabilization (#): 0
[3]; 50 mg QD
  Tumor Stabilization, Time: 8 months
[3]; 50 mg QD, 6 patients
  Tumor Progression: 5
  Tumor Response (#): 0
  Tumor Stabilization (#): 1
[3]; 75 mg QD, 9 patients
  Tumor Progression: 0
  Tumor Response (#): 3
  Tumor Stabilization (#): 2
[3]; 75 mg QD, one value per patient
  Tumor Stabilization, Time: 4 months and 5 months
[3]; 100 mg Q2D, 1 patient
  Tumor Progression: 0
  Tumor Response (#): 1
  Tumor Stabilization (#): 0
[3]; 100 mg QD
  Tumor Stabilization, Time: 6 months
[3]; 100 mg QD, 3 patients
  Tumor Progression: 0
  Tumor Response (#): 2
  Tumor Stabilization (#): 1
[3]; 150 mg QD
  Tumor Stabilization, Time: 3 months
[3]; 150 mg QD, 1 patient
  Tumor Progression: 0
  Tumor Response (#): 0
  Tumor Stabilization (#): 1
[3]; [13]
  Tumor Progression, totals: 8/23
  Tumor Response (#), totals: 6/23
  Tumor Stabilization (#), totals: 5/23
[4]; 50 mg daily patients
  patients with dose limiting toxicities at cycle 1: 2 of 9
[4]; 50 mg daily patients, cycle 1
  dose limiting toxicity grade 3 edema: 1 patient
  dose limiting toxicity grade 4 thrombocytopenia: 1 patient
[4]; 75 mg daily patients
  patients with dose limiting toxicities at cycle 1: 5 of 11
[4]; 75 mg daily patients, cycle 1
  dose limiting toxicity grade 3 asthenia: 3 patients
  dose limiting toxicity grade 3 hypertension: 1 patient
  dose limiting toxicity grade 5 tumor necrosis: 1 patient
[4]; 100 mg daily patients
  patients with dose limiting toxicities at cycle 1: 2 of 3
[4]; 100 mg daily patients, cycle 1
  dose limiting toxicity grade 3 asthenia: 1 patient
  dose limiting toxicity grade 3 hypertension: 1 patient
[4]; cycle 1
  course of asthenia: progressively from grade 1 at week 1 to grade 3-4 at week 4
[4]; doses greater than or equal to 50 mg, appeared during cycle 1
  main dose-limiting toxicity: Asthenia
[4]; human, in vivo
  rest period required for reversal of grade 3 asthenia: 2-4 week
[4]; the 150 mg daily patient
  dose limiting toxicity at cycle 1: grade 3 asthenia
[5]; 63 metastatic RCC patients
  taken off study for toxicity: 8 patients
[5]; preliminary safety data N=44
  Grade 3 event: anemia: 5%
  Grade 3 event: leukocytopenia: 5%
  Grade 3 event: lymphopenia: 32%
  Grade 3 event: neutropenia: 9%
  grade 3 thrombocytopenia: no patients
[5]; [14]
  adverse event constipation, frequency: 34%
  adverse event diarrhea, frequency: 46%
  adverse event dyspepsia, frequency: 30%
  adverse event fatigue/asthenia, frequency: 67%
  adverse event nausea, frequency: 50%
  adverse event stomatitis, frequency: 43%
[5]; [15]
  Grade 3 event: elevated amylase: 9%
  Grade 3 event: elevated lipase: 23%
[5]; taken off the study
  decreases in left ventricular ejection fraction >20% without clinical symptoms: Two
[6]; 63 metastatic RCC patients
  taken off study for PD: Twelve
[6]; [16]
  Best response by RECIST: confirmed partial, patients: 16%
  Best response by RECIST: progression, patients: 27%
  Best response by RECIST: stable, patients: 41%
  reduction of unidimensional measurement of at least 30%, awaiting confirmation of response status, patients: 10%
[6]; of 10 patients with partial response, median follow-up of 4 months from start of therapy
  partial responders remaining progression free: 9
[6]; of 10 patients with partial response, progressed at 5 months
  partial responders who progressed: 1 patient
[7]; [11]
  evidence of clinical activity of short duration by WHO criteria: 7 patients
  morphologic response (less than 5% blasts in bone marrow, absence of blasts in peripheral blood), number of patients: 1
  partial responses (reduction of blasts by more than 50% in blood and bone marrow), number of patients: 6
[7]; 50 mg daily, schedule 4/1 weeks treatment/rest
  Best Response: SD (3×) and PR (2×)
[7]; 50 mg daily, schedule 4/2 weeks treatment/rest
  Best Response: PD (3×) and PR (3×) and Morph. R
[7]; 75 mg daily, schedule 4/2 weeks treatment/rest
  Best Response: PR
[7]; of the 7 patients with clinical activity
  rebound of blasts during the treatment-free (rest) period, patients: 2
[7]; of the responding patients
  responding patients with mutated FLT3 (ITD or D835): Three

## CCN(CC)CCNC(=O)c1c(C)[nH]c(/C=C2\C(=O)Nc3ccc(F)cc32)c1C [Compound 1, 5-(5-fluoro-2-oxo-1,2-dihydroindol-(3Z)-ylidenemethyl)-2,4-dimethyl-1H-pyrrole-3-carboxylic acid (2-diethylaminoethyl)-amide]
[2]; 50 mg dose
  tolerability in advanced AML population: tolerable
[8]
  efficacy in bone marrow engraftment model: dose-dependent efficacy
[7]; one patient with FLT3 ITD mutation, Group B (50 mg daily, 4 weeks treatment/7 day rest)
  duration of partial response: 4 month
[1]
  half-life: ~40 h
[9]; 50 mg dose
  target inhibition: consistently observed
[9]; patient with FLT3 ITD mutation, Group B, consistent with decreasing blast counts
  time to decreased FLT3 protein expression: ≤ 8 days
[9]; patient with FLT3 ITD mutation, Group B, similar in 2 other FLT3 mutant patients
  FLT3 phosphorylation after administration: inhibition of FLT3 phosphorylation
[10]
  efficacy in FLT3-ITD xenograft tumor model: dose-dependent efficacy

— patent US20050182122A1, “Method of treating abnormal cell growth using indolinone compounds” (priority 2003, published 2005)
